Data taken from paper PMC12362618, “Development of the First Small-Molecule Inhibitor Targeting Oncostatin M for Treatment of Breast Cancer” (Journal of Medicinal Chemistry, 2025).
Entries after “also recorded” stand apart in the source; their conditions may differ.

Columns and labels:
OSM = molecular target: T1, OSM (Homo sapiens, UniProt P13725); assay: Fluorescence quenching assay of SMI binding to OSM; settings: average of three independent replicates, errors at 95% confidence level, read-out: KD (OSM-SMI dissociation constant)
T1 sequence (P13725 26-252): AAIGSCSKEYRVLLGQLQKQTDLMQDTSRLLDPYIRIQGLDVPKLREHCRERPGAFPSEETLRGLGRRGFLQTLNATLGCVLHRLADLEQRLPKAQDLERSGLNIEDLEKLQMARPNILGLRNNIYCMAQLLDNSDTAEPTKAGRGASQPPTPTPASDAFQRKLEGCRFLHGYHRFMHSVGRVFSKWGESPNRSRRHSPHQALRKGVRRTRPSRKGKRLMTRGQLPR
Experimental: To perform fluorescence quenching assays, 2 mL of 1 μM OSM solution in polymethylmethacrylate cuvettes was prepared by dilution of a concentrated stock solution of recombinant OSM with buffer solution (100 mM sodium chloride, 50 mM sodium phosphate, 50 mM freshly added DTT, pH = 6.6). Cuvettes were titrated with 5 μL increments of a 1 mM small molecule stock solution in DMSO, with a cuvette titrated with an equivalent volume of DMSO as a control. […] In cases where little to no significant quenching was observed, the titration was supplemented with 2.5 μL increments of a 10 mM small molecule stock solution to increase the concentration delivered. The fluorescence intensity measurements were obtained on a Cary Eclipse spectrofluorometer equipped with a Xenon arc lamp. Fluorescence intensities were measured by exciting at 280 nm (4 nm slit width) and recording the emission from 345 to 355 nm with a photomultiplier tube voltage of 700 V, unless otherwise noted. Each titration point was normalized to OSM’s native fluorescence intensity, corrected by adding the decrease in fluorescence intensity caused by dilution with DMSO, and the average value of the three replicates for each point was plotted against concentration of small molecule delivered and fit to a modified Stern–Volmer function as described by Charlier and Plapp. Binding affinity (K D) values were obtained […] from the fitting routine. All curve-fitting analysis was performed in GraphPad Prism 8.0.

[1] = test system: OSM-mediated signaling (pSTAT3, pAKT, pJNK, pERK) in T47D cells; assay: Immunoblot of OSM-mediated signaling in T47D cells; assay type: cell-based, human; settings: SMI 10 μM, OSM 10 ng/mL, 30 min
Experimental: For immunoblot analysis, T47D breast cancer cells were treated and collected in the same manner as described above for the ELISA preparation. After lysate collection, samples were run on a 10% SDS-PAGE gel and transferred to a nitrocellulose membrane via semidry transfer. Blots were rinsed with DI H2O and allowed to completely dry at room temperature before blocking with LiCor Intercept PBS Blocking Buffer (LiCor, Lincoln, NE; Cat# 927-90001) for 1 h. After blocking, primary antibodies (1:1000) suspended in blocking buffer supplemented with 0.1% Tween were added, shaken at room temperature for 1 h, and stored at 4 °C overnight. Membranes were then washed 6 times for 5 minutes each with 1X PBS supplemented with 0.5% Tween while shaking at room temperature, and secondary antibodies (1:15,000) were applied and incubated for 1 h. Afterward, membranes were washed as previously described above and imaged at 700 nm using the LiCor Odyssey CLx Imaging System. Quantification of immunoblots was performed using the LiCor Image Studio software, normalizing to β-Actin, and calculating relative fold change compared to nontreated samples. Antibodies used included phospho-STAT3 (Y705) (Cell Signaling Technology, Danvers, MA; cat. no. 9145), phospho-AKT (S473) (Cell Signaling Technology, Danvers, MA; cat. no. 4060), phospho-JNK ([…]/[…]) (Cell Signaling Technology, Danvers, MA; cat. no. 4668), phospho-ERK (T202/Y204) (Cell Signaling Technology, Danvers, MA; cat. no. 9101), β-Actin (Cell Signaling Technology; cat. no. 3700), and donkey antirabbit IRDye 800CW (LiCor, Lincoln, NE; Cat# 925-32213).

[2] = test system: OSM-induced pSTAT3 in T47D human breast cancer cells; assay: pSTAT3 ELISA in T47D cells treated with OSM ± SMI; assay type: cell-based; settings: T47D, 30 min; for Inhibition of OSM-induced pSTAT3 via ELISA: SMI 10 μM, OSM 10 ng/mL
Experimental: (§1) To test the effect of SMIs in vitro, each SMI was incubated with OSM for a period of 1 h at 37 °C, and T47D and MDA-MB-231 human breast cancer cell lines were subsequently treated with OSM (10 ng/mL) and/or SMI-10 (10 μM) analogs for 30 min and measured for pSTAT3 levels via ELISA. The results of these assays are presented graphically in Figure and, for T47D cells, in Table as a percentage of reduction from +OSM alone. For phospho-STAT3 (pSTAT3) ELISAs, T47D MDA-MB-231, and MCF-7 cells were seeded in 12- or 24-well plates at 70–75% confluency and allowed to adhere overnight, after which cells were serum-starved with serum-free RPMI-1640 for 4 h. SMIs (10 μM in DMSO or serially diluted to specified concentrations from a 100 mM stock in DMSO) and human recombinant OSM (10 ng/mL; PeproTech; #300–10T-10UG) were incubated in serum-free RPMI-1640 medium for 1 h. After incubation, the SMI-10 analogs or SMI-10B13 and OSM were added to the serum-starved cells for 30 min. Immediately afterward, the cells were lysed using 1x PathScan Sandwich ELISA Lysis Buffer (Cell Signaling Technology; #7018S), collected, and stored at −20 °C. Lysates were analyzed for pSTAT3 levels using either the PathScan Phospho-STAT3 (Tyr705) Sandwich ELISA Antibody Pair kit (Cell Signaling Technology; #7146) or Human/Mouse Phospho-STAT3 (Y705) DuoSet IC ELISA (R&D Systems; DYC4607B), according to manufacture’s protocol. pSTAT3 expression was measured with absorbance at 450 nm and quantified by comparison relative to OSM-induced pSTAT3 levels. To calculate an IC50 for SMI-10B13, a standard curve was generated as described in the DuoSet IC ELISA datasheet to determine the concentration of pSTAT3.

[3] = test system: OSM-induced pSTAT3 in MDA-MB-231 human breast cancer cells; assay: pSTAT3 ELISA in MDA-MB-231 cells treated with OSM ± SMI; assay type: cell-based; settings: SMI 10 μM, OSM 10 ng/mL, 30 min
Experimental: as §1, with “2 High-throughput virtual screening identifies three novel compounds capable of interacting with site III of OSM. […] (F) Structure of parent SMI-10. Data are presented as mean ± SD relative to + OSM treatment, analyzed by one-way ANOVA with Tukey’s posttest *p < 0.05, **p < 0.01. To test” for “To test”

[4] = SMI 10 μM + OSM 10 ng/mL, ELISA, relative to +OSM, no-treatment blank subtracted

Row | Compound | Kd (OSM) [µM] | Inhibition of OSM-mediated signaling cascades by immunoblot (words) [1] | Relative pSTAT3 Levels (Table 2, SMI-10B analogs) [2, 4] [%] | Inhibition of OSM-induced pSTAT3 via ELISA [3] | Relative pSTAT3 Levels (Table 1, SMI-10A-10J) [2, 4] [%] | Inhibition of OSM-induced pSTAT3 via ELISA [2]
1 | O=C(O)CCc1cc(-c2ccc3c(c2)OCO3)c(-c2ccc3c(c2)OCO3)o1 [SMI-10B14, 3-(4,5-Bis(benzo[d][1,3]dioxol-5-yl)furan-2-yl)propanoic Acid] | 9.1 ± 1.5 | most effective; also recorded: better at inhibiting pSTAT3, pAKT, pJNK, and pERK signaling | 79.65 |  |  | 
2 | O=C(/C=C/c1cc(-c2ccc3c(c2)OCO3)c(-c2ccc3c(c2)OCO3)o1)c1ccccc1 [SMI-10C] | 32.5 ± 3.4 | capable of inhibiting multiple cascades; also recorded: significant reductions, near nontreated levels |  | capable of inhibiting OSM-induced pSTAT3 | 11.9 | capable of inhibiting OSM-induced pSTAT3
3 | CCOC(=O)/C=C/c1cc(-c2ccc3c(c2)OCO3)c(-c2ccc3c(c2)OCO3)o1 [SMI-10D, Ethyl (E)-3-(4,5-Bis(benzo[d][1,3]dioxol-5-yl)furan-2-yl)acrylate] | 20.9 ± 2.4 | capable of inhibiting multiple cascades; also recorded: significant reductions, near nontreated levels |  | capable of inhibiting OSM-induced pSTAT3 | 9.0 | capable of inhibiting OSM-induced pSTAT3
4 | C(=N\Nc1ccccc1)/c1cc(-c2ccc3c(c2)OCO3)c(-c2ccc3c(c2)OCO3)o1 [SMI-10E, (E)-1-((4,5-Bis(benzo[d][1,3]dioxol-5-yl)furan-2-yl)methylene)-2-phenylhydrazine] | 21.2 ± 2.7 | capable of inhibiting multiple cascades; also recorded: significant reductions, near nontreated levels |  | capable of inhibiting OSM-induced pSTAT3 | 10.2 | capable of inhibiting OSM-induced pSTAT3
5 | c1ccc(CNCc2cc(-c3ccc4c(c3)OCO4)c(-c3ccc4c(c3)OCO4)o2)cc1 [SMI-10F, N-Benzyl-1-(4,5-bis(benzo[d][1,3]dioxol-5-yl)furan-2-yl)methanamine] | 16.8 ± 4.1 | capable of inhibiting multiple cascades; also recorded: significant reductions, near nontreated levels |  | capable of inhibiting OSM-induced pSTAT3 | 10.1 | capable of inhibiting OSM-induced pSTAT3
6 | O=C(/C=C/c1ccccc1)c1cc(-c2ccc3c(c2)OCO3)c(-c2ccc3c(c2)OCO3)o1 [SMI-10G, (E)-1-(4,5-Bis(benzo[d][1,3]dioxol-5-yl)furan-2-yl)-3-phenylprop-2-en-1-one] | 21.9 ± 3.5 | capable of inhibiting multiple cascades; also recorded: significant reductions, near nontreated levels |  | capable of inhibiting OSM-induced pSTAT3 | 8.8 | capable of inhibiting OSM-induced pSTAT3
7 | O=C(NCc1ccccc1)c1cc(-c2ccc3c(c2)OCO3)c(-c2ccc3c(c2)OCO3)o1 [SMI-10J, 4,5-Bis(benzo[d][1,3]dioxol-5-yl)-N-benzylfuran-2-carboxamide] | 30.5 ± 2.1 | significant reductions, near nontreated levels |  |  | 8.6 | 
8 | O=[N+]([O-])c1c(/C=N/Nc2ccccc2)oc(-c2ccc3c(c2)OCO3)c1-c1ccc2c(c1)OCO2 [SMI-10] |  |  |  | effective inhibitors of OSM |  | 
